Test results taken from patent publication US8436049B2, “Uses of pentamidine and related compounds” (State of Oregon Acting By and Through the State Board of …, priority 2008, dated 2013).
“And” between values parts separate entries of the source, which are not always exact repeats. Equal entries are not always repeated.

Experiments:
[1] = system: Clc-1 pre-mRNA splicing, HSA^LR transgenic mice; test: Clc-1 exon 7a splicing in vastus muscle of HSA^LR mouse model of DM; type: in vivo; conditions: intraperitoneal, saline HSA^LR control 46±6%, normal mice 94±1%
Procedure: Mouse handling and experimental procedures were conducted in accordance with the Association for Assessment and Accreditation of Laboratory Animal Care. HSA^LR transgenic mice in line 20b expressing human skeletal actin mRNA with ˜250 CUG repeats in the 3′ UTR were used (Mankodi et al., Science 289:1769-1772, 2000). Age- and gender-matched HSA^LR mice were injected intraperitoneally with pentamidine or saline (control). For a low-dose regimen, 25 mg/kg of pentamidine was administrated twice daily for 5 days. For a higher-dose regimen, 40 mg/kg of pentamidine was injected once daily for 7 days. Mice were sacrificed one day after the last injection, and vastus muscle was obtained for splicing analysis. […] PCR amplification was carried out for 22-24 cycles with the following primer pairs: Clc-1 forward, [sequence] (SEQ ID NO: 7), and reverse, [sequence] (SEQ ID NO: 8); Serca1 forward, [sequence] (SEQ ID NO: 9), and reverse, [sequence] (SEQ ID NO: 10). The PCR products were analyzed on agarose gels and scanned with a laser fluorimager (Typhoon, GE Healthcare, Piscataway, N.J.). Differences between the two groups were evaluated by Student's t-test.

[2] = system: PLEKHH2 minigene in HeLa cells; test: PLEKHH2 minigene splicing in HeLa cells; type: cell-based; conditions: with or without CUG repeats
Procedure: HeLa cells were grown in monolayers in DMEM with GlutaMAX™ (Gibco, Carlsbad, Calif.) and supplemented with 10% fetal bovine serum. Approximately 2.0 (±0.2)×10^5 cells were plated in 6 well plates and transfected 18-20 hours later at 70-90% confluency. 1 μg of plasmid was transfected into each well of cells, using 5 μL of […] (Invitrogen) according to the manufacturer's protocols. For co-transfection, 1 μg of total plasmid was transfected, at 500 ng of each construct. Test compounds were added 4 hours after transfection, when the media was changed. Cells were harvested 18-22 hours after transfection using TrypLE™ reagent (Gibco).
Immediately following harvesting, RNA was isolated from the cell pellets using an RNeasy® kit (Qiagen, Valencia, Calif.). 500 ng of isolated RNA was DNased with RQI DNase (Promega, Madison, Wis.) according to manufacture's protocol. 100 ng of DNAsed RNA was reverse transcribed with Superscript® II (Invitrogen, Carlsbad, Calif.) and a cTNT-specific reverse primer according to manufacturer's protocols. 30 ng of the reverse transcription reaction was subjected to 22-25 rounds of PCR amplification using cTNT specific primers spiked with a forward primer 5′ end-labeled with [γ-^32P]ATP. […] The gel was subsequently autoradiographed and quantitation of the radioactive bands was performed using ImageQuant® software. […]

[3] = biological target: T1, MBNL-CUG RNA complex (Homo sapiens, UniProt Q9NR56); test: Gel shift assay, disruption of MBNL binding to short CUG repeat RNA
T1 construct: Both the full length MBNL and MBNL (1-260) constructs were cloned using BamHI and NotI restriction sites; GST (N, cleaved yes); made in house; host or cells: E. coli BL21-Star
T1 sequence (Q9NR56 1-382 isoform Q9NR56-5): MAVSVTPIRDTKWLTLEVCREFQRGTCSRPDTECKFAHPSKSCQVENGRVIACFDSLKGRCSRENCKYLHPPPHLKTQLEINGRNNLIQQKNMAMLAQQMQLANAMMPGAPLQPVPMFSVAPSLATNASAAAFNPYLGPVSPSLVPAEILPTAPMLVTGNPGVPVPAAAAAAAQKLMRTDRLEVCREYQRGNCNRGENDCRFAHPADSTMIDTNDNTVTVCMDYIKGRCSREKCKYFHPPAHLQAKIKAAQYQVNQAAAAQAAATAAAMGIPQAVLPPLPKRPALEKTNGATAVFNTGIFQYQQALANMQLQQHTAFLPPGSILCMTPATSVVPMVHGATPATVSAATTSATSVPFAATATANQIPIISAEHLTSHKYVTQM
Procedure: MBNL1 (MBNL) was PCR amplified and was cloned into GST fusion vector pGEX-6P-1 (GE Healthcare, Piscataway, N.J.), using DNA encoding a MBNL isoform with amino acids 1-382). Both the full length MBNL and MBNL (1-260) constructs were cloned using BamHI and NotI restriction sites. Using BL21-Star expression cells (Invitrogen, Carlsbad, Calif.), protein expression was induced with 0.25 mM IPTG at an OD600 of about 0.5-1, for 3-4 hours at 37° C. Cells were lysed in 30 ml of buffer (500 mM NaCl, 25 mM Tris pH 7.5, 10 mM β-mercaptoethanol (BME) and 5% glycerol) using 1 mg/ml of lysozyme, followed by sonication (3×30 seconds). Cell extract was centrifuged for 15 minutes at 17,000 rpm, and lysate which contained GST-MBNL was collected. GST-MBNL was bound to GST affinity beads for 30 minutes at 4° C. […] The protein was then run over an anion exchange (Q) column. […] MBNL was collected in the column flow through, concentrated and dialyzed into storage buffer (30% glycerol, 300 mM NaCl, 20 mM Tris pH 7.5, 5 mM BME) and stored at −80° C. Aliquots were removed from −80° C. and temporarily placed at −20° C. until used for an experiment.
All RNA substrates that were radiolabeled were ordered from IDT DNA (Coralville, Iowa), and 5′ end-labeled using [γ-^32P]ATP. All radiolabeled RNAs were purified on 8% polyacrylamide denaturing gels.
Solutions for the protein-RNA binding experiments contained 125 mM NaCl, 5 mM MgCl2, 20 mM Tris (pH 7.5), 7.5% glycerol, 2 mg/ml bovine serum albumin, and 0.1 mg/ml heparin. Prior to incubation, RNA substrates were annealed by incubation at 95° C. for 2 minutes and then placed directly on ice for 20 minutes in 66 mM NaCl, 6.7 mM MgCl2, and 27 mM Tris (pH 7.5). Protein was then added to the RNA in the presence or absence of the small molecule. The binding reaction was carried out in a 10 μL volume and was incubated for 10 minutes at room temperature before 2-4 μL were loaded on a pre-chilled 4° C. gel. RNA and RNA-protein complexes were separated on 3% acrylamide (37.5:1), 0.3% agarose (low melting point), 0.5× Tris-Borate (TB) gels, run for approximately 2-3 hours at 4° C. at 25-50 volts. Gels were dried and autoradiographed. For the neomycin B and CUG8 gel shift, an 8% acrylamide (29:1), 0.5×TB gel was used and run for 3 hours at 4° C. at 175 volts. All small molecules were dissolved in either water or ethanol, according to the manufacturer's guidance for solubility.
For binding curves, gels were quantified using ImageQuant® software (Molecular Dynamics, Piscataway, N.J.). The percent RNA bound was determined by taking the ratio of RNA-protein complex to total RNA, per lane. Any counts in the well were discarded as it was unapparent if the RNA was bound by protein, small molecule or was in an aggregate. Binding curves were graphed using KaleidaGraph software (Synergy Software, Reading, Pa.). For the neomycin B and CUG8 gel shift, the apparent Kd was determined using Equation 1, where Y=fraction bound, m0=small molecule concentration, m1=total RNA concentration, and m2=Kd.
For determining the EC50, Equation 3 was used, where m0=small molecule concentration, m1=EC50, m2=Hill coefficient, and m3=fraction MBNL bound without small molecule present. Y=m3/[1+(m0/m1)^m2] Equation 3 Results

N=C(N)c1ccc(OCCCCCOc2ccc(C(=N)N)cc2)cc1 [pentamidine]
Clc-1 exon 7a exclusion ([1]; 25 mg/kg twice daily for 5 days): 63±3%
Clc-1 exon 7a exclusion ([1]; 40 mg/kg once daily for 7 days): 66±4%
Effect on PLEKHH2 minigene splicing [2]: Splicing was unchanged
Disruption of the MBNL-CUG interaction ([3]; gel shift screen, increasing amounts of small molecule): disrupt the MBNL-CUG interaction at micromolar concentrations
EC50 ([3]; gel shift, short CUG repeat RNA (CUG4), read-out: EC50 for disruption of MBNL binding to CUG repeat construct): ~58 µM and 58 µM
